# Experimental data: ChEMBL document CHEMBL1136785, “Design and structure-activity relationships of 2-alkyl-3-aminomethyl-6-(3-methoxyphenyl)-7-methyl-8-(2-fluorobenzyl)imidazolo[1,2-a]pyrimid-5-ones as potent GnRH receptor antagonists” (J Med Chem, 2003)
# Molecular target: T1, Gonadotropin-releasing hormone receptor (Homo sapiens, UniProt P30968)
# T1 sequence (P30968 whole entry): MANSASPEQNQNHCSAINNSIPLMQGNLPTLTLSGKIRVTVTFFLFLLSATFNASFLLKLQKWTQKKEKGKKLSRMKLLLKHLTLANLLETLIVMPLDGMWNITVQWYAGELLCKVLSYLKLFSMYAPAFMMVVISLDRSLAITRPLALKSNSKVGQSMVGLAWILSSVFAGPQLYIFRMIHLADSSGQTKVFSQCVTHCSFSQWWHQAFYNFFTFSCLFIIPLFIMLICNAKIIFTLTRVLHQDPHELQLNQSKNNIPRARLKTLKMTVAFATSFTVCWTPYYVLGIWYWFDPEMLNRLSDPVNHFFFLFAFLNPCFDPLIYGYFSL
# Assay: Binding affinity against human gonadotropin-releasing hormone receptor
row,Compound,Ki [nM]
1,COc1cccc(-c2c(C)n(Cc3ccccc3F)c3nc(C(C)(C)C)c(CNCc4ccccc4)n3c2=O)c1,240
2,COc1cccc(-c2c(C)n(Cc3ccccc3F)c3nc4c(n3c2=O)CN(CCc2ccccn2)CC4(C)C)c1,12000
3,COCCN(C)Cc1c(C(C)(C)C)nc2n(Cc3ccccc3F)c(C)c(-c3cccc(OC)c3)c(=O)n12,430
4,COC(=O)C(C)(C)c1nc2n(Cc3ccccc3F)c(C)c(-c3cccc(OC)c3)c(=O)n2c1CN(C)CCc1ccccn1,1.2
5,COc1cccc(-c2c(C)n(Cc3ccccc3F)c3nc(C(C)(C)C)c(CNCC4CCCCC4)n3c2=O)c1,430
6,COc1cccc(-c2c(C)n(Cc3ccccc3F)c3nc(C(C)(C)C)c(CNCC4CCCC4)n3c2=O)c1,6400
7,COC(=O)C(C)(C)c1nc2n(Cc3ccccc3F)c(C)c(-c3cccc(OC)c3)c(=O)n2c1CN(C)Cc1ccccn1,4.2
8,COC(=O)C(C)(C)c1nc2n(Cc3ccccc3F)c(C)c(-c3cccc(OC)c3)c(=O)n2c1CN1CCc2ccccc2C1,9200
9,COc1cccc(-c2c(C)n(Cc3ccccc3F)c3nc(C(C)(C)CO)c(CN(C)Cc4ccccn4)n3c2=O)c1,8
10,COc1cccc(-c2c(C)n(Cc3ccccc3F)c3nc(C(C)(C)C)c(CN(C)CCc4ccccc4)n3c2=O)c1,190
11,COC(=O)C(C)(C)c1nc2n(Cc3ccccc3F)c(C)c(-c3cccc(OC)c3)c(=O)n2c1CN1CCC(c2ccccc2)CC1,5100
12,COCCN(C)Cc1c(C(C)(C)C(=O)OC)nc2n(Cc3ccccc3F)c(C)c(-c3cccc(OC)c3)c(=O)n12,300
13,COc1cccc(-c2c(C)n(Cc3ccccc3F)c3nc(C(C)(C)C)c(CNCCc4ccccn4)n3c2=O)c1,160
14,COC(=O)C(C)(C)c1nc2n(Cc3ccccc3F)c(C)c(-c3cccc(OC)c3)c(=O)n2c1CN(C)CCc1ccccc1,130
15,COc1cccc(-c2c(C)n(Cc3ccccc3F)c3nc(C(C)(C)CNCCc4ccccn4)cn3c2=O)c1,350
16,COc1cccc(-c2c(C)n(Cc3ccccc3F)c3nc(C(C)(C)C)c(CN(C)Cc4ccccc4)n3c2=O)c1,72
17,COC(=O)C(C)(C)c1nc2n(Cc3ccccc3F)c(C)c(-c3cccc(OC)c3)c(=O)n2c1CN(C)Cc1cccnc1,400
18,CCN(CC)CCN(C)Cc1c(C(C)(C)C)nc2n(Cc3ccccc3F)c(C)c(-c3cccc(OC)c3)c(=O)n12,260
19,COc1cccc(-c2c(C)n(Cc3ccccc3F)c3nc(C(C)(C)C)c(CN(C)C)n3c2=O)c1,1700
20,COc1cccc(-c2c(C)n(Cc3ccccc3F)c3nc(C(C)(C)C)c(CN(C)Cc4ccccn4)n3c2=O)c1,11
21,CCCCN(C)Cc1c(C(C)(C)C(=O)OC)nc2n(Cc3ccccc3F)c(C)c(-c3cccc(OC)c3)c(=O)n12,320
22,COc1cccc(-c2c(C)n(Cc3ccccc3F)c3nc(C(C)(C)C)c(CNCc4ccccn4)n3c2=O)c1,30
23,COc1cccc(-c2c(C)n(Cc3ccccc3F)c3nc(C(C)(C)C)c(CN(C)CCc4ccccn4)n3c2=O)c1,5.2
24,COC(=O)C(C)(C)c1nc2n(Cc3ccccc3F)c(C)c(-c3cccc(OC)c3)c(=O)n2c1CN(C)Cc1ccccc1,59
25,COC(=O)C(C)(C)c1nc2n(Cc3ccccc3F)c(C)c(-c3cccc(OC)c3)c(=O)n2c1CN1CCN(C)CC1,7700
26,COC(=O)C(C)(C)c1nc2n(Cc3ccccc3F)c(C)c(-c3cccc(OC)c3)c(=O)n2c1CN(C)Cc1ccccc1O,490
27,CCN(CCc1ccccn1)Cc1c(C(C)(C)C)nc2n(Cc3ccccc3F)c(C)c(-c3cccc(OC)c3)c(=O)n12,7.9
